Experimental findings from US4820834A, “Benzodiazepine analogs” (priority 1987, dated 1989) are described below.

In assay [1] the target is T1, CCK receptor (brain, cerebral cortex) (Cavia porcellus, UniProt H0VZC5).
T1 construct: Cerebral cortex was dissected and used as a receptor source; from tissue; host or cells: guinea pig cerebral cortex membranes (male Hartley)
T1 sequence (H0VZC5 1-426): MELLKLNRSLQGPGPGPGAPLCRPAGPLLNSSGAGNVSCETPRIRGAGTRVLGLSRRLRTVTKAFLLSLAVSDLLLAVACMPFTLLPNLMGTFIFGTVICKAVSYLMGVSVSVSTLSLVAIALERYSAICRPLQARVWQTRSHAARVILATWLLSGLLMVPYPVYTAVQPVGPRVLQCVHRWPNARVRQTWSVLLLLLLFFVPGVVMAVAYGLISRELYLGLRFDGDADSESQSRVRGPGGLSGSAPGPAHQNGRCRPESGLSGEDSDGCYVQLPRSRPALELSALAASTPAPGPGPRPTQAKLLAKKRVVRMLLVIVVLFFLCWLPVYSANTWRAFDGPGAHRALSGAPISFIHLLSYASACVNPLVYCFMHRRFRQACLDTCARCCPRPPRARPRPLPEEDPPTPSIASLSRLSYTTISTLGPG
Nature of the assay: biochemical. Type of assay: binding, Male Hartley guinea pigs. The note with it: guinea pig cerebral cortex, ^125 I-CCK-33, 25° C., 2 hours. The method, boiled down:
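Binding of [radiolabeled] CCK-33 measured by gamma counting of centrifuged pellets after 2 h at 25°C. Membranes came from guinea pig brain cortex, suspended in 10 mM HEPES, 5 mM MgCl2, 1 mM EGTA, 0.25 mg/ml bacitracin, 0.4% BSA.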

Assay [2] deals with T2, CCK receptor (pancreas) (Rattus norvegicus, UniProt P30551).
T2 construct: The whole pancreas was dissected free of fat tissue and was homogenized; from tissue; host or cells: rat pancreas membranes (Sprague-Dawley)
T2 sequence (P30551 1-444): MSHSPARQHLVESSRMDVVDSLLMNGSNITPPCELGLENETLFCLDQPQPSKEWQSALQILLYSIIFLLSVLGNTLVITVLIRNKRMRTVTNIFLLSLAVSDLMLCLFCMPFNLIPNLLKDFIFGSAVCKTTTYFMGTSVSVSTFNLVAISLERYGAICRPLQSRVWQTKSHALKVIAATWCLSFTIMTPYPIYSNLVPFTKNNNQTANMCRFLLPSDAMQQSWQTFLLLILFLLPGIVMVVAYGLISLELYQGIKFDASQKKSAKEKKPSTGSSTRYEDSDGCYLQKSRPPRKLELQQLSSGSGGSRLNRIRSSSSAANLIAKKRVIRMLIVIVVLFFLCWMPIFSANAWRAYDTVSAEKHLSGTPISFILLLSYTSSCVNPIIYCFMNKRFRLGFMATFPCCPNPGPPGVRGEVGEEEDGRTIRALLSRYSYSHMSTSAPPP
Nature of the assay: CCK Receptor Binding (Pancreas): inhibition of ^125 I-CCK-33 binding. The arrangement: species or system Male Sprague-Dawley rats. The note with it: rat pancreas membranes, ^125 I-CCK-33, 37° C., 30 minutes. The protocol:
1. CCK Receptor Binding (Pancreas)
CCK-33 was radiolabeled with ^125 I-Bolton Hunter reagent (2000 Ci/mmole) as described by Sankara et al. (J. Biol. Chem. 254: 9349-9351, 1979). Receptor binding was performed according to Innis and Snyder (Proc. Natl. Acad. Sci. 77: 6917-6921, 1980) with the minor modification of adding the additional protease inhibitors, phenylmethane sulfonyl fluoride and o-phenanthroline.
Male Sprague-Dawley rats (200-350 g) were sacrificed by decapitation. The whole pancreas was dissected free of fat tissue and was homogenized in 20 volumes of ice-cold 50 mM, Tris HCl (pH 7.7 at 25° C.) with a Brinkmann Polytron PT 10. The homogenates were centrifuged at 48,000 g for 10 min. Pellets were resuspended in Tris Buffer, centrifuged as above and resuspended in 200 volumes of binding assay buffer (50 mM Tris HCl, pH 7.7 at 25° C., 5 mM dithiothrietol, 0.1 mM bacitracin, 1.2 mM phenylmethane sulfonyl fluoride and 0.5 mM o-phenanthroline). […] All assays were run in duplicate or triplicate. The reaction mixtures were incubated at 37° C. for 30 minutes and centrifuged in a Beckman Microfuge (4 minutes) immediately after adding 1 ml of ice-cold incubation buffer. The supernatant was aspirated and discarded, pellets were counted with a Beckman gamma 5000. For Scatchard analysis (Ann. N.Y. Acad. Sci. 51: 660, 1949), ^125 I-CCK-33 was progressively diluted with increasing concentrations of CCK-33.

Assay [3] has as its target T3, Gastrin receptor (gastric glands) (Cavia porcellus, UniProt H0VZC5).
T3 construct: The washed guinea pig gastric glands prepared as above were resuspended; from tissue; host or cells: guinea pig gastric mucosal glands (male Hartley)
T3 sequence (H0VZC5 1-426): T1 sequence (H0VZC5 1-426)
Nature of the assay: Gastrin Receptor Binding in Guinea Pig Gastric Glands. More on the design: species or system guinea pig (male Hartley). The note with it: 25° C., 30 minutes.

Where [4] appears, read: read-out: IC50 ^125 I-CCK Brain.
Where [5] appears, read: read-out: IC50 ^125 I-CCK Pancreas.
Where [6] appears, read: ^125 I-gastrin, read-out: IC50 ^125 I-Gastrin Gastric Glands.
Setting [7] is: IC50 ^125 I-Gastrin Gastric Glands.

Where two headings read alike, the source gives them in different places. Bounds are passed on as bounds.

Broadly, the IC50 is the concentration at which inhibition is half-maximal. “1-(2-Cyanoethyl)-1,3-dihydro-5-(2-fluorophenyl)-3(R)-(3'-indolyl)methyl-2H- 1,4-benzodiazepin-2-one (A, 85%) and 1-(2-cyanoethyl)-1,3-dihydro-5-(2-fluorophenyl)-3(R)-[1'-(2-cyanoethyl)-3'-indolyl]-methyl-2H-1,4-benzodiazpin-2-one (B, 15%) [Example 102]”: the values for the IC50 in assay [1] (setting [4]), in assay [2] (setting [5]) and in assay [3] (setting [6]) were 30 µM, 0.7 µM and 12.8 µM, respectively.
As for `CC(C)(C)OC(=O)N[C@@H](Cc1c[nH]c2ccccc12)C(=O)NC1N=C(c2ccccc2)c2ccccc2NC1=O` (mixture of isomers) [Example 77, 3(RS)-(Boc-L-tryptophanyl)amino-1,3-dihydro-5-phenyl-2H-1,4-benzodiazepin-2-one], the IC50 in assay [1] (IC50 ^125 I-CCK Brain) was found to be 20 µM; in assay [2] (IC50 ^125 I-CCK Pancreas), 6 µM; in assay [3] (setting [7]) it was 250 µM.
For `CC(C)(C)OC(=O)N[C@H](Cc1c[nH]c2ccccc12)C(=O)NC1N=C(c2ccccc2)c2ccccc2NC1=O` (mixture of isomers) [Example 96, 3(RS)-(BOC-D-tryptophanyl)amino-1,3-dihydro-5-phenyl-2H-1,4-benzodiazepin-2-one] the same measures were greater than 100 µM, 17 µM and 500 µM.
With `CN1C(=O)C(C(O)c2c[nH]c3ccccc23)N=C(c2ccccc2)c2ccccc21` (racemic) [Example 47, 1,3-Dihydro-3(RS)-[1-hydroxy-1-(3'-indolyl)]methyl-1-methyl-5-phenyl-2H-1,4-benzodiazepin-2-one], the half-maximal inhibitory concentration (IC50) in assay [1] (setting [4]) stood at 40 µM; in assay [2] (IC50 ^125 I-CCK Pancreas), 24 µM; in assay [3] (setting [6]) it was 24 µM.
As for `CN1C(=O)C(C(=O)c2ccsc2)N=C(c2ccccc2)c2ccccc21` (racemic) [Example 48, 1,3-Dihydro-1-methyl-5-phenyl-3-(RS)-(3-thienoyl)-2H-1,4-benzodiazepin-2-one], the IC50 in assay [1] (setting [4]) is 33 µM; in assay [2] (IC50 ^125 I-CCK Pancreas) it was 54 µM; in assay [3] (setting [6]) it was 8.4 µM.
As for `CN1C(=O)C(C(O)c2ccsc2)N=C(c2ccccc2)c2ccccc21` (racemic) [Example 49, 1,3-Dihydro-3-(RS)-[1-hydroxy-1-(3-thienyl)]methyl-1-methyl-5-phenyl-2H-1,4-benzodiazepin-2-one], the IC50 in assay [1] (setting [4]) was 100 µM; in assay [2] (IC50 ^125 I-CCK Pancreas), greater than 100 µM; in assay [3] (setting [6]) it was 34 µM.
As for `CC(=O)N1C(c2ccccc2F)c2ccccc2N(C)C(=O)[C@H]1Cc1cn(C)c2ccccc12` (stereo partly drawn) [Example 27b, 4-acetyl-5-(2-fluorophenyl)-3(R)-[3'-(1'-methylindolyl)-methyl]-1-methyl-1,3,4,5-tetrahydro-2H-1,4-benzodiazepin-2-one], the results for the IC50 in assay [1] (setting [4]) and in assay [2] (setting [5]) were greater than 100 µM and 100 µM, respectively.
Turning to `O=C1Nc2ccc(Cl)cc2C(c2ccccc2Cl)=N[C@@H]1Cc1c[nH]c2ccccc12` [Example 28, 7-Chloro-5-(2-chlorophenyl)-1,3-dihydro-3(R)-(3'-indolyl)methyl-2H-1,4-benzodiazepin-2-one], the figures for the half-inhibitory concentration (IC50) in assay [1] (IC50 ^125 I-CCK Brain) and in assay [2] (IC50 ^125 I-CCK Pancreas) were greater than 100 µM and 5 µM, respectively.
The matching figures for `O=C1[C@@H](Cc2c[nH]c3ccccc23)N=C(c2ccccc2)c2cc(Cl)ccc2N1Cc1ccccc1` [Example 30, 1-Benzyl-7-chloro-1,3-dihydro-3(R)-(3'-indolyl) methyl-5-phenyl-2H-1,4-benzodiazepin-2-one]: greater than 100 µM and greater than 100 µM.
Consider `CN1C(=O)[C@@H](Cc2c[nH]c3ccccc23)N=C(c2ccccc2)c2cc(Cl)ccc21` [Example 31, 7-Chloro-1,3-Dihydro-3(R)-(3'-indolyl)methyl-1-methyl-5-phenyl-2H-1,4-benzodiazepin-2-one], for which the half-inhibitory concentration (IC50) is greater than 100 µM in assay [1] (IC50 ^125 I-CCK Brain) and 1.4 µM in assay [2] (IC50 ^125 I-CCK Pancreas).
Turning to `O=C1[C@H](Cc2c[nH]c3ccccc23)N=C(c2ccccc2)c2cc(Cl)ccc2N1Cc1ccccc1` [Example 33, 1-Benzyl-7-chloro-1,3-dihydro-3(S)-(3'-indolyl) methyl-5-phenyl-2H-1,4-benzodiazepin-2-one], the half-maximal inhibitory concentration (IC50) in assay [1] (IC50 ^125 I-CCK Brain) and in assay [2] (IC50 ^125 I-CCK Pancreas) was greater than 100 µM in each case.
With `S=C1Nc2ccc(Cl)cc2C(c2ccccc2)=N[C@@H]1Cc1c[nH]c2ccccc12` [Example 34, 7-Chloro-1,3-dihydro-3(R)-(3'-indolyl)methyl-5-phenyl-2H-1,4-benzodiazepin-2-thione], the IC50 in assay [1] (IC50 ^125 I-CCK Brain) is greater than 100 µM; in assay [2] (IC50 ^125 I-CCK Pancreas), 4.5 µM.
For the compound `CCOC(=O)CN1C(=O)[C@@H](Cc2c[nH]c3ccccc23)N=C(c2ccccc2F)c2ccccc21` [Example 42, 1,3-Dihydro-1-(ethoxycarbonylmethyl)-5-(2-fluorophenyl)-3(R)-(3'-indolyl)methyl-2H-1,4-benzodiazepin-2-one], the IC50 in assay [1] (IC50 ^125 I-CCK Brain) is greater than 100 µM; in assay [2] (IC50 ^125 I-CCK Pancreas), 8.3 µM.
For `CN1C(=O)[C@@H](Cc2cn(Cc3ccccc3)c3ccccc23)N=C(c2ccccc2)c2cc(Cl)ccc21` [Example 46, 7-Chloro-1,3-dihydro-3(R)-[3'(1'-benzylindolyl)methyl]1-methyl-5-phenyl-2H-1,4-benzodiazepin-2-one] the same measures were greater than 100 µM and greater than 100 µM.
On to `CCCCCc1ccc(C(=O)N[C@H]2N=C(c3ccccc3)c3ccccc3N(C)C2=O)cc1` [Example 201], for which the figures for the concentration for half-maximal inhibition (IC50) in assay [2] (setting [5]) and in assay [3] (setting [6]) were 0.25 µM and greater than 100 µM, respectively.
Turning to `CCCCCc1ccc(C(=O)N[C@@H]2N=C(c3ccccc3)c3ccccc3N(C)C2=O)cc1` [Example 206, (R)-N-(2,3-Dihydro-1-methyl-2-oxo-5-phenyl-1H-1,4-benzodiazepin-3-yl)-4-pentylbenzamide], the concentration for half-maximal inhibition (IC50) in assay [2] (setting [5]) is 12 µM; in assay [3] (setting [6]), greater than 100 µM.
Regarding `CN1CC(CC2N=C(c3ccccc3)c3ccccc3N(C)C2=O)c2ccccc21` (stereo not shown) [Example 211, 3-((2,3-Dihydro-1-methyl-1H-indol-3-yl)methyl)-1,3-dihydro-1-methyl-5-phenyl-2H-1,4-benzodiazepin-2-one], the IC50 worked out at 93 µM in assay [1] (IC50 ^125 I-CCK Brain) and 13 µM in assay [2] (IC50 ^125 I-CCK Pancreas).
Regarding `CN1C(=O)C(NC(=O)c2ccc(C(F)(F)F)cc2)N=C(c2ccccc2F)c2ccccc21` (stereo not shown) [Example 218, N-(5-(2-Fluorophenyl)-2,3-dihydro-1-methyl-2-oxo-1H-1,4-benzodiazepin-3-yl)-4-(trifluoromethyl)-benzamide], the half-inhibitory concentration (IC50) in assay [2] (IC50 ^125 I-CCK Pancreas) worked out at 0.0026 µM; in assay [3] (setting [6]) it was 1.8 µM.
In the case of `Cc1cccc(NC(=O)NC2N=C(c3ccccc3)c3ccccc3N(C)C2=O)c1` (stereo not shown) [Example 263, N-(2,3-Dihydro-1-methyl-2-oxo-5-phenyl-1H-1,4-benzodiazepin-3-yl)-N'-(3-methylphenyl)-urea], the IC50 in assay [2] (setting [5]) came to 0.0081 µM; in assay [3] (setting [6]) it was 0.0031 µM.
On to `Cc1cccc(NC(=O)N[C@@H]2N=C(c3ccccc3)c3ccccc3N(C)C2=O)c1` [Example 281, (R)-N-(2,3-Dihydro-1-methyl-2-oxo-5-phenyl-1H-1,4-benzodiazepin-3-yl)-N'-(3-methylphenyl)-urea], for which the IC50 was 1.4 µM in assay [2] (IC50 ^125 I-CCK Pancreas) and 0.00066 µM in assay [3] (setting [6]).
